Activity calls are given as the source filed them. No cut-off for these calls is given here.
Tests used:
[1] = molecular target: T1, Lysine-specific demethylase 4C (Homo sapiens, UniProt Q9H3R0)
T1 sequence (Q9H3R0 whole entry): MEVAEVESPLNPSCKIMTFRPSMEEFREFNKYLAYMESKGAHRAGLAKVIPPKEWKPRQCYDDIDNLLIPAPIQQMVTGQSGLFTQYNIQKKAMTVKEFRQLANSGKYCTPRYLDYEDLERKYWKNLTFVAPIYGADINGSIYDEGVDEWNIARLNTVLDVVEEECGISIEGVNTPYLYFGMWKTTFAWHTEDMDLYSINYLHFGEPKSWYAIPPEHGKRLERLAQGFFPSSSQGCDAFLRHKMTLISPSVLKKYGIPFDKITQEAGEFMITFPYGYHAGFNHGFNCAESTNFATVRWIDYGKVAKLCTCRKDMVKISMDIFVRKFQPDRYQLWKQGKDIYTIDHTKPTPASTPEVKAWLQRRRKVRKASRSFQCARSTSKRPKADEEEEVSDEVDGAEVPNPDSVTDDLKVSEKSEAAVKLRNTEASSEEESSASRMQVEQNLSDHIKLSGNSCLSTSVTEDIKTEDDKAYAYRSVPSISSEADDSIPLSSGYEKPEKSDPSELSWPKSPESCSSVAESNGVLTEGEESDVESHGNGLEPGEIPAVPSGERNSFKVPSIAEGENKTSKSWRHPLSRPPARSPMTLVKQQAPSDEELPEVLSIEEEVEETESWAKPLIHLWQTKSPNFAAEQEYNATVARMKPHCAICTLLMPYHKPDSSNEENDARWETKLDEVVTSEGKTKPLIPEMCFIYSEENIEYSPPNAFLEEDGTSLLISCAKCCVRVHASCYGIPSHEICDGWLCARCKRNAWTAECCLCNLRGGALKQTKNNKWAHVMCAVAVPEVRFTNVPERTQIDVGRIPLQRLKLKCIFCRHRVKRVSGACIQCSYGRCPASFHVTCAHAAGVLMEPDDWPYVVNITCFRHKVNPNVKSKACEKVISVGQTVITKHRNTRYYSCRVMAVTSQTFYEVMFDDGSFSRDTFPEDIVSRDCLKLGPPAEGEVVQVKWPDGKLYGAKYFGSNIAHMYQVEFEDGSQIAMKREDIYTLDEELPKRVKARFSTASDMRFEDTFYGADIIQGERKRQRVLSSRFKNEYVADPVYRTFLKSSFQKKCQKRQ
Description: Inhibition of recombinant JMJD2C (unknown origin) incubated for 15 mins prior to substrate addition by AlphaScreen method

[2] = molecular target: T2, Lysine-specific demethylase 4E (Homo sapiens, UniProt B2RXH2)
T2 sequence (B2RXH2 whole entry): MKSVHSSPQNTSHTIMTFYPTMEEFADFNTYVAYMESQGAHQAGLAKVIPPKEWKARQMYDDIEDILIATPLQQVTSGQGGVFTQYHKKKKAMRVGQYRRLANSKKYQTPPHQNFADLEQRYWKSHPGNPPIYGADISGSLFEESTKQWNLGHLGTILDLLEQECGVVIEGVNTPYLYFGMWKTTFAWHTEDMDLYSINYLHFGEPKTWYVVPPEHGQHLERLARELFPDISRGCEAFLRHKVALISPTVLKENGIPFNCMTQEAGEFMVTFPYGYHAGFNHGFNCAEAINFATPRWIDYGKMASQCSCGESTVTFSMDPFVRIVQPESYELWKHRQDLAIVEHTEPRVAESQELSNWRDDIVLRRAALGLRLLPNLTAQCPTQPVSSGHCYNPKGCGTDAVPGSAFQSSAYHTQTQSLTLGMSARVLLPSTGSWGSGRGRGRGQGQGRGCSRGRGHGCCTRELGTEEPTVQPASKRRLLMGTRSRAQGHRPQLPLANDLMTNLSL
Description: Inhibition of recombinant JMJD2E (unknown origin) incubated for 15 mins prior to substrate addition by AlphaScreen method

LNCaP [3] = test: Antimigratory activity against human LNCAP cells at 50 uM after 72 hrs; format: functional, cell-based
HCT-116 = test: Cell cycle arrest in human HCT116 cells assessed as accumulation at pre-G1 phase at 50 uM after 30 hrs by propidium iodide staining-based FACS analysis; format: functional
LNCaP [4] = test: Cell cycle arrest in human LNCAP cells assessed as accumulation at pre-G1 phase at 50 uM after 30 hrs by propidium iodide staining-based FACS analysis; format: functional
LNCaP [5] = test: Cell cycle arrest in human LNCAP cells assessed as accumulation at G1 phase at 50 uM after 30 hrs by propidium iodide staining-based FACS analysis; format: functional
Egl nine homolog 1 = Egl nine homolog 1 (Homo sapiens, UniProt Q9GZT9); test: Inhibition of PHD2 (unknown origin) by mass spectrometry
Chain of Egl nine homolog 1 (Q9GZT9 whole entry): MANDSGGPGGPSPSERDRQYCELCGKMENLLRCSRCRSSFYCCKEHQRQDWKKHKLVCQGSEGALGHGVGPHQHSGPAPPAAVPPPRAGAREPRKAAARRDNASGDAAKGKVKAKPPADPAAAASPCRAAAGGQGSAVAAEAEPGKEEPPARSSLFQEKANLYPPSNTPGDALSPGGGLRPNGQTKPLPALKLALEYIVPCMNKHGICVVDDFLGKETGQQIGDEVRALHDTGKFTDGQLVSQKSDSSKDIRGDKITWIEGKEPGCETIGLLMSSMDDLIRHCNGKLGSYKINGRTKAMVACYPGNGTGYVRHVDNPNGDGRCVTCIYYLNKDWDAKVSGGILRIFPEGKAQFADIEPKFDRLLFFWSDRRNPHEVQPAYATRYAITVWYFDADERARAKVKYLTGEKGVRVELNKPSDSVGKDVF

[6] = molecular target: Hypoxia-inducible factor 1-alpha inhibitor (Homo sapiens, UniProt Q9NWT6); test: Inhibition of FIH (unknown origin) by mass spectrometry
Chain of Hypoxia-inducible factor 1-alpha inhibitor (Q9NWT6 whole entry): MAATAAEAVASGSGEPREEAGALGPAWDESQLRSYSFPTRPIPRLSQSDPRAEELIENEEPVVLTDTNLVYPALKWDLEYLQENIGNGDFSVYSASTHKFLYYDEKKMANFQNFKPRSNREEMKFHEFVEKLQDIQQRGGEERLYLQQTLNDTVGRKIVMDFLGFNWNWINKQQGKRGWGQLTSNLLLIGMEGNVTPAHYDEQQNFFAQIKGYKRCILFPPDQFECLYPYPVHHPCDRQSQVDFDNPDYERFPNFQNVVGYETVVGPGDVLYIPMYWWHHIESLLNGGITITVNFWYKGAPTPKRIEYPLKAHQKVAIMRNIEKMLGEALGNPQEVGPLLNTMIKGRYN

[7] = molecular target: T3, Amine oxidase [flavin-containing] B (Homo sapiens, UniProt P27338)
T3 sequence (P27338 whole entry): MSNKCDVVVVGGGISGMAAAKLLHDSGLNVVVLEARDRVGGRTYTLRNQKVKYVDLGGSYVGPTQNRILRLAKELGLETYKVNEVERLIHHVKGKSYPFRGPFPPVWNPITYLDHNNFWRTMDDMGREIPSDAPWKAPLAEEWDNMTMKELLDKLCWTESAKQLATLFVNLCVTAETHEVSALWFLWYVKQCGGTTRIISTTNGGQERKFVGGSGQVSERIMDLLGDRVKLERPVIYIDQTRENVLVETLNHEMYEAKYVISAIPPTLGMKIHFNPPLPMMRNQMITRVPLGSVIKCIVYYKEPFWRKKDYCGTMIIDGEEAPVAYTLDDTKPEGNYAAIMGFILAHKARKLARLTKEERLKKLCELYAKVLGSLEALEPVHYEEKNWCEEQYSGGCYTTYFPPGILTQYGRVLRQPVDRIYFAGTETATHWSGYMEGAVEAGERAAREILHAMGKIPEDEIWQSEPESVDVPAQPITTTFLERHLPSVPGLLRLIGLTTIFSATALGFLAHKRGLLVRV
Description: Inhibition of human recombinant MAO-B expressed in Pichia pastoris using benzylamine as substrate after 5 mins

[8] = molecular target: T4, Amine oxidase [flavin-containing] A (Homo sapiens, UniProt P21397)
T4 sequence (P21397 whole entry): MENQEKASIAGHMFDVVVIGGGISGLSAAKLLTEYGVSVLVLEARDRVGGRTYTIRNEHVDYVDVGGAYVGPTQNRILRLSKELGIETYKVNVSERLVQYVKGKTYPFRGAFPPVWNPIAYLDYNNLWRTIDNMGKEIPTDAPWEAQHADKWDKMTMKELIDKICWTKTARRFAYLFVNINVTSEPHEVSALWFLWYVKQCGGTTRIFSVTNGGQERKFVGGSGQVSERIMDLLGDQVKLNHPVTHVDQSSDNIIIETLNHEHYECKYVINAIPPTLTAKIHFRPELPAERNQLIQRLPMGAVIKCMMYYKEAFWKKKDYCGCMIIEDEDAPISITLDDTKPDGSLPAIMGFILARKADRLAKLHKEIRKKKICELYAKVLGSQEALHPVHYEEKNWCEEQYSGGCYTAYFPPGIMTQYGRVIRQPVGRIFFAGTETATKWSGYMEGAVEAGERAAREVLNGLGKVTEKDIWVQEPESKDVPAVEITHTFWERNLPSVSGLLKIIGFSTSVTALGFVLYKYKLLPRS
Description: Inhibition of human recombinant MAO-A expressed in Pichia pastoris using kynuramine as substrate after 5 mins

Q: Which IC50 [1] does the source give for COC(=O)c1ccnc(-c2cc(C(=O)O)ccn2)c1 here?
A: 3.5 µM

Q: And the IC50 [2]?
A: 5 µM

Q: With Cl.N[C@@H]1C[C@H]1c1ccc(NC(=O)c2ccc(O)c3ncccc23)cc1 (relative stereo) as the compound, how does the Activity (LNCaP [3]) read?
A: inactive

Q: What about the Activity (HCT-116) of the same compound?
A: Active

Q: What about the Activity (LNCaP [4]) of the same compound?
A: Active

Q: What about the Activity (LNCaP [5]) of the same compound?
A: >=90%

Q: What about the IC50 (Egl nine homolog 1) of the same compound?
A: 8.5 µM

Q: And the IC50 [6]?
A: 25 µM

Q: And the IC50 [1]?
A: 1.2 µM

Q: And the IC50 [7]?
A: 81 µM

Q: What about the IC50 [8] of the same compound?
A: 8.9 µM

Q: What about the IC50 [2] of the same compound?
A: 3.9 µM

Q: N[C@H]1C[C@@H]1c1ccc(NC(=O)CCCNC(=O)c2ccc(O)c3ncccc23)cc1 (relative stereo) was tested. Which IC50 [1] did it give?
A: 4.5 µM

Q: And the IC50 [2]?
A: 5.5 µM

Q: For N[C@H]1C[C@@H]1c1ccc(NC(=O)CCCCNC(=O)c2ccc(O)c3ncccc23)cc1 (relative stereo), which IC50 [1] is on record?
A: 3.1 µM

Q: And the IC50 [2]?
A: 3.5 µM

Q: For Cl.N[C@H]1C[C@@H]1c1ccc(NC(=O)CCCCCNC(=O)c2ccc(O)c3ncccc23)cc1 (relative stereo), which Activity (LNCaP [4]) is on record?
A: Active

Q: And the Activity (LNCaP [5])?
A: >=90%

Q: And the IC50 [1]?
A: 2.5 µM

Q: And the IC50 [2]?
A: 5.1 µM

Q: What does the source list for N[C@@H]1C[C@H]1c1ccc(NC(=O)c2ccnc(-c3cc(C(=O)O)ccn3)c2)cc1 (relative stereo)?
A: IC50 (Egl nine homolog 1): 278 µM; IC50 [6]: > 100 µM; IC50 [1]: 0.07 µM; IC50 [7]: 47 µM; IC50 [8]: 35.4 µM; IC50 [2]: 0.42 µM

Q: For COC(=O)c1ccnc(-c2cc(C(=O)Nc3ccc([C@@H]4C[C@H]4N)cc3)ccn2)c1.Cl (relative stereo), which Activity (LNCaP [3]) is on record?
A: inactive

Q: And the Activity (HCT-116)?
A: Active

Q: And the Activity (LNCaP [4])?
A: Active

Q: And the Activity (LNCaP [5])?
A: >=90%

Q: What about the IC50 [1] of the same compound?
A: 2.7 µM

Q: And the IC50 [7]?
A: 43.3 µM

Q: What about the IC50 [8] of the same compound?
A: < 1 µM

Q: What about the IC50 [2] of the same compound?
A: 16 µM
